Molecular target: T1, Topo IV from S. aureus (ParE) (Staphylococcus aureus, UniProt P0C1S7)
T1 construct: purchased Inspiralis
Assay: Topoisomerase IV inhibitory assay (Inspiralis kit)
Format: biochemical
Details: staphylococcal Topo IV (ParE), mean of three experiments ± S.D.
Procedure: DNA gyrase (type II topoisomerase) and topoisomerase IV (Topo IV; ParE) introduce negative supercoils into DNA, utilizing ATP hydrolysis as a source of energy. They are considered essential bacterial regulatory enzymes that are absent in eukaryotes. Gyrase subunit B (Gyr-B) and Topo IV inhibitory activities were determined using the Inspiralis assay kit (Inspiralis®, UK) on streptavidin-coated 96-well microtiter plates (Thermo Scientific, Germany) according to the manufacturer’s protocols. The assay measures the ability of the tested compounds to inhibit the ATPase activity of both Gyr-B and ParE subunits. Briefly, the plates were hydrated with buffer (20 mM Tris-HCl with pH 7.6, 0.01% w/v BSA, 0.05% v/v Tween 20, 137 mM NaCl) and the biotinylated oligonucleotide was then immobilized. […] The produced fluorescence was measured using a microplate reader (BioTek Synergy, excitation: 485 nm, emission: 535 nm, Germany). […] The PK inhibitory activity of the tested compounds was determined according to the previously reported method. […] The PK activity was measured in a continuous assay coupled to lactate dehydrogenase (LDH) in which the change in absorbance at 340 nm owing to the oxidation of NADH was measured by the microplate reader. […] IC50 values in both assays were determined using seven concentrations of tested compounds. […]

IC50: 220 ± 10 nM
SMILES: CO[C@@H]1[C@@H](OC(N)=O)[C@@H](O)[C@H](Oc2ccc3c(O)c(NC(=O)c4ccc(O)c(CC=C(C)C)c4)c(=O)oc3c2C)OC1(C)C [Novobiocin]

— PMC7074965, “Discovery of Two Brominated Oxindole Alkaloids as Staphylococcal DNA Gyrase and Pyruvate Kinase Inhibitors via Inverse Virtual Screening” (Microorganisms, 2020)
